In US6403594B1, “Benzopyran derivatives” (Recordati, S.A. Chemical and Pharmaceutical Company, priority 1999, dated 2002):
pKi: −log10 of the molar value. Where two headings read alike, the source gives them in different places.

Key:
diastolic blood pressure [1] = settings: anaesthetised dogs, i.v.; data from Leonardi et al. 1997; cited from earlier work
[2] = system: prostatic urethral pressure increase induced by noradrenaline; settings: anaesthetised dogs, i.v.; data from Leonardi et al. 1997; cited from earlier work
[3] = target: T1, α1a-adrenoceptor (recombinant) (Homo sapiens, UniProt P35348); experiment: Radioligand binding, cloned α1a-adrenoceptor ([3H]prazosin); settings: read-out: Affinity for recombinant α1a-adrenoceptor, cloned receptors (Ki)
T1 construct: expressed in transfected cells
T1 sequence (P35348 1-466): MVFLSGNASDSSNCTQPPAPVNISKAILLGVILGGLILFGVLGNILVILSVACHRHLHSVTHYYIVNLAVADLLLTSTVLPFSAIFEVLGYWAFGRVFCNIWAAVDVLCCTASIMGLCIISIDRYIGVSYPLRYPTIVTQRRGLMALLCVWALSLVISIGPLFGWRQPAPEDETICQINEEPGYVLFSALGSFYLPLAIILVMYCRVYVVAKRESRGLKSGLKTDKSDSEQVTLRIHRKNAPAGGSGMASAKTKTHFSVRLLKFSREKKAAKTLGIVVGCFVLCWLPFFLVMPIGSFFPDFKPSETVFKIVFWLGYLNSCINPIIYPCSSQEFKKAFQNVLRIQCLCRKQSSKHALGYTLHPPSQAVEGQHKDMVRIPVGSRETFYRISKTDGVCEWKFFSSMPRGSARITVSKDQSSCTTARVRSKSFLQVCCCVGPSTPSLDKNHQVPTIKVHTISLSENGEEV
Procedure: (§1) Determination of affinity for cloned subtypes of α1-adrenoceptor subtypes was performed in membranes from cells transfected by electroporation with DNA expressing the genes encoding each α1-adrenoceptor subtype.
(§2) Non-specific binding was determined in the presence of 10 μM phentolamine.
(§3) Incubation was stopped by addition of ice-cold Tris buffer and rapid filtration through 0.2% polyethyleneimine-pretreated Schleicher & Schuell GF52 filters.
(§4) Data were expressed as mean Ki.

diastolic blood pressure [4] = experiment: Lowering of diastolic blood pressure in anaesthetised dogs after i.v. administration; assay type: in vivo, dog
Procedure: (§5) The experiments were performed according to the method of Imagawa J. et al., J. Pharmacol. Methods 22: 103-111, 1989, with substantial modifications, as follows: adult male beagle dogs, weighing 8-10 kg, were anaesthetised with pentobarbital sodium (30 mg/kg i.v. and 2 mg/kg/h i.v.), intubated and spontaneously ventilated with room air. In order to monitor systemic blood pressure (BP), a polyethylene (PE) catheter was introduced into the aortic arch through the left femoral artery. A collateral of the left femoral vein was cannulated for infusion of anaesthetic, and the right femoral vein was cannulated for administration of compounds. For intra-arterial (i.a.) injection of noradrenaline (NA), a PE catheter was introduced into the lower portion of the abdominal aorta via the right external iliac artery. Through such procedure, NA was selectively distributed to the lower urinary tract. A paramedian vertical suprapubic incision extending from the base of the pelvis to the mid-abdominal region was made and the bladder and prostate were exposed. The bladder was manually emptied with a syringe. Prostatic urethral pressure was monitored with a Mikro-tip catheter (5F) introduced into the bladder via the external urethral meatus, and withdrawn until the pressure transducer was positioned in the prostatic region of the urethra. A ligature was secured between the neck of the bladder and urethra to isolate the response of the latter and to avoid any interaction with the bladder. Another ligature was put around the Mikro-tip catheter at the external meatus, to secure the catheter itself. After a stabilising period following the surgical procedure (30 minutes), in which arterial and prostatic urethral pressure were continuously monitored as basal values, i.a. administration of NA was made at intervals of 20 minutes. The doses of NA chosen were such to produce an increase of at least 100% in urethral pressure. The test compounds were administered i.v. in a cumulative manner with intervals of 15-20 minutes between administrations. I.a. injections of NA were repeated 5 minutes after every dosing of test compound with intervals of about 10 minutes between stimulations. In order to compare the effects of the administered compound, dose/response curves (log dose transformation) were constructed by computing, at the peak effect, the percent decrease in diastolic blood pressure and the percent inhibition of the increase in urethral pressure induced by NA.

[5] = target: T2, 5HT1A-serotoninergic receptor (Homo sapiens, UniProt P08908); experiment: Radioligand binding, cloned 5-HT1A-serotoninergic receptor in HeLa membranes ([3H]8-OH-DPAT); design: expressed in transfected cells; host or cells: HeLa; settings: cloned human 5-HT1A receptor in HeLa membranes, mean Ki, read-out: Affinity for 5-HT1A receptor, cloned receptors (Ki)
T2 sequence (P08908 1-422): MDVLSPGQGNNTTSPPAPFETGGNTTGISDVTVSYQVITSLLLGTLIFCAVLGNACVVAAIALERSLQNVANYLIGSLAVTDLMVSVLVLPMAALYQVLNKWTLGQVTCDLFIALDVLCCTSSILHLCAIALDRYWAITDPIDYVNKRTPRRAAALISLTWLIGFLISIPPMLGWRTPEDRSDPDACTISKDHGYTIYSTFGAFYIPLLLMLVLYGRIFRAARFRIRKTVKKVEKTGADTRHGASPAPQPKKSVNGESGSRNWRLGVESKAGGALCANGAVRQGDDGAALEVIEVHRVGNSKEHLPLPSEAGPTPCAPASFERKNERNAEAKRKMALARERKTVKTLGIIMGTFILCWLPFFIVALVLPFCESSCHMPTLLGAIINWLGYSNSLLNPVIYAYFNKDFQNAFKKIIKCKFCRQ
Procedure: HeLa cells were grown as monolayers in Dulbecco's Modified Eagle medium (DMEM) supplemented with 10% foetal calf serum and gentamicin (100 μg/mL), 5% CO2, at 37° C. The cells were detached from the growth flask at 95% confluence by a cell scraper and were lysed in ice-cold Tris-5-mM and EDTA-5-mM buffer (pH 7.4). The homogenates were centrifuged at 40000×g×20 minutes and the membranes were resuspended in a small volume of ice-cold buffer containing Tris 5 mM and EDTA 5 mM (pH 7.4), and immediately frozen and stored at −70° C. until use.
Non-specific binding was determined in the presence of 10 μM 5-HT. The incubation was stopped by addition of ice-cold Tris buffer and rapid filtration through 0.2% polyethyleneimine-pretreated Schleicher & Schuell filters.
as §4

[6] = system: prostatic urethral pressure increase induced by noradrenaline; experiment: Inhibition of urethral contractions induced by noradrenaline in anaesthetised dogs after i.v. administration; assay type: in vivo, dog; settings: for UC ID50: active dose inhibiting by 50% the urethral contractions induced by noradrenaline: i.v. administration; for DBP/UC ratio between the active doses: i.v., DBP ED25 / UC ID50
Procedure: as §5

[7] = target: T3, α1b-adrenoceptor (recombinant) (Homo sapiens, UniProt P35368); experiment: Radioligand binding, cloned α1b-adrenoceptor ([3H]prazosin); settings: read-out: Affinity for recombinant α1b-adrenoceptor, cloned receptors (Ki)
T3 construct: expressed in transfected cells
T3 sequence (P35368 1-520): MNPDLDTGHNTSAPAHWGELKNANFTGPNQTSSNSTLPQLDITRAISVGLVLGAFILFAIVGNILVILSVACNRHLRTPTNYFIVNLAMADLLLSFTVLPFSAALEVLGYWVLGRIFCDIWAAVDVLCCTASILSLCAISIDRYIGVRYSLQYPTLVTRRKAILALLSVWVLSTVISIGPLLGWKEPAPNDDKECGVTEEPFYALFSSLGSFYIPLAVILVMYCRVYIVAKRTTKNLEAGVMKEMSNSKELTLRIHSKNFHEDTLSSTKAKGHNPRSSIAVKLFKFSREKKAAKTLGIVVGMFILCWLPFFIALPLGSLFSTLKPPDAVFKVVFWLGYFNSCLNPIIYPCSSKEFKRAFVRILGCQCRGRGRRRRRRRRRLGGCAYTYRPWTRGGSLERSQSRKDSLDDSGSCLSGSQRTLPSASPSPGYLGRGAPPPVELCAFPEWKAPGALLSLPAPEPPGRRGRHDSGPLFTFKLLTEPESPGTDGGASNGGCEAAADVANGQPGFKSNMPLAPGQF
Procedure: as §1, §2, §3, §4

[8] = target: T4, α1d-adrenoceptor (recombinant) (Homo sapiens, UniProt P25100); experiment: Radioligand binding, cloned α1d-adrenoceptor ([3H]prazosin); settings: read-out: Affinity for recombinant α1d-adrenoceptor, cloned receptors (Ki)
T4 sequence (P25100 1-572): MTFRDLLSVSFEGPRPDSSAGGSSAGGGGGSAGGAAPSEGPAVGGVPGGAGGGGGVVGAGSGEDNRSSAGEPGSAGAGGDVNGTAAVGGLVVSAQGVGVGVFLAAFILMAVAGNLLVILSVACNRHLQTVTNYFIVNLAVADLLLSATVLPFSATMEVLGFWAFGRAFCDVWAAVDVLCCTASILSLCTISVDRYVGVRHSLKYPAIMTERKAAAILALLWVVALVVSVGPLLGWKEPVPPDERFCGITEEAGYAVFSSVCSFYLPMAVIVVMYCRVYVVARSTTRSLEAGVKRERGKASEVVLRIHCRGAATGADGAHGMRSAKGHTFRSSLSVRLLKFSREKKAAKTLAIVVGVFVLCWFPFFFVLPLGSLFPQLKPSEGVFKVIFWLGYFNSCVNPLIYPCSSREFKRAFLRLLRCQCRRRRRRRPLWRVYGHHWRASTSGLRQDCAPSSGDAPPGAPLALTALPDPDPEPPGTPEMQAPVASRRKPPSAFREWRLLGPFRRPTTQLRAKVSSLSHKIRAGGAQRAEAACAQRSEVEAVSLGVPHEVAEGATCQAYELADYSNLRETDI
Procedure: as §1, §2, §3, §4

α1-adrenergic receptor = settings: background statement; cited from earlier work
[9] = target: T2, 5HT1A-serotoninergic receptor; settings: background statement; cited from earlier work

| Structure (SMILES) | DBP ED25: active dose lowering diastolic blood pressure by 25% (diastolic blood pressure [1]) [mg/kg] | UC ID50: active dose inhibiting by 50% the urethral contractions induced by noradrenaline [2] [mg/kg] | pKi [3] | DBP ED25: active dose lowering diastolic blood pressure by 25% (diastolic blood pressure [4]) [mg/kg] | pKi [5] | UC ID50: active dose inhibiting by 50% the urethral contractions induced by noradrenaline [6] [mg/kg] | pKi [7] | pKi [8] | DBP/UC ratio between the active doses [6] | Affinity for the α1-adrenergic receptor (α1-adrenergic receptor) | Affinity for the 5HT1A-serotoninergic receptor [9] |
| --- | --- | --- | --- | --- | --- | --- | --- | --- | --- | --- | --- |
| COc1ccccc1N1CCN(CCCNC(=O)c2cccc3c(=O)c(C)c(-c4ccccc4)oc23)CC1 [Compound A] | 0.243 | 0.0024 |  |  |  |  |  |  |  |  |  |
| Cc1c(-c2ccccc2)oc2c(C(=O)NCCCN3CCN(c4ccccc4OCC(F)(F)F)CC3)cccc2c1=O [Example 15, 8-<3-{4-[2-(2,2,2-Trifluoroethoxy)phenyl]-1-piperazinyl}propylcarbamoyl>-3-methyl-4-oxo-2-phenyl-4H-1-benzopyran] |  |  | 10.15 | 3.001 | 9.15 | 0.0049 | 8.22 | 8.47 |  |  |  |
| COc1ccc(C#N)cc1N1CCN(CCCNC(=O)c2cccc3c(=O)c(C)c(-c4ccccc4)oc23)CC1 [Example 18, 8-{3-[4-(5-Cyano-2-methoxyphenyl)-1-piperazinyl]propylcarbamoyl}-3-methyl-4-oxo-2-phenyl-4H-1-benzopyran] |  |  | 8.38 | 1.2976 | 6.17 | 0.0341 | 7.00 | 7.34 | 38.05 |  |  |
| Cc1c(-c2ccccc2)oc2c(C(=O)NCCCN3CCN(c4cc(Cl)ccc4OCC(F)(F)F)CC3)cccc2c1=O [Example 22, 8-<3-{4-[5-Chloro-2-(2,2,2-trifluoroethoxy)phenyl]-1-piperazinyl}-propylcarbamoyl>-3-methyl-4-oxo-2-phenyl-4H-1-benzopyran] |  |  | 9.60 | 1.266 |  | 0.0195 | 8.72 | 8.51 | 64.92 |  |  |
| Cc1c(-c2ccccc2)oc2c(C(=O)OCCN3CCCCC3)cccc2c1=O [Flavoxate, 3-methyl-4-oxo-2-phenyl-8-(2,N-piperidinylethoxycarbonyl)-4H-1-benzopyran] |  |  |  |  |  |  |  |  |  | practically devoid of affinity | practically devoid of affinity |
| CCOc1ccccc1OCCN[C@H](C)Cc1ccc(OC)c(S(N)(=O)=O)c1 [tamsulosin] |  |  |  |  |  |  |  |  |  |  | comparable affinity |
